Data as given in patent publication US20110281794A1, “C[…]-[…] A[…] ADM[…] A BRAIN-DEAD, HEART-BEATING POTENTIAL ORGAN DONOR” (VIVOLINE MEDICAL AB, priority 2008, published 2011).

Legend:
[1] = cited from earlier work
[2] = in vivo; cited from earlier work
[3] = target: NET (nor-epinephrine transporter) (Homo sapiens, UniProt P23975); conditions: cited from earlier work
[4] = system: brain-dead, heart-beating cadaver of a pig; test: Blood pressure and organ maintenance in brain-dead, heart-beating pig under intravenous infusion; type: in vivo
Experimental: The following ingredients: 1 mg (1 ml) adrenaline, 1 mg (1 ml) nor-adrenaline, 0.3 mg (3 ml) T3, 300 mg (3 ml) cortisone, […] (9 ml) Minirin and 1 mg (3 ml) cocaine were dissolved in 50 ml physiological sodium chloride solution.
For reducing the risk of diabetes insipidus, a bolus of […] Minirin was given at the start of the treatment.
The inventor has performed more than 20 experiments with pigs and using cocaine in combination with adrenaline and nor-adrenaline.
FIG. 4 is a diagram over blood pressure during an experiment similar to Experiment 1.

alfa-1 = test: Potency as replacement of nor-adrenaline (alfa-1-agonist)
From the text: In some embodiments, the adrenaline and/or nor-adrenaline may be partly or entirely replaced by an equivalent substance. For example, phenylephrine is an alfa-1-agonist and may replace nor-adrenaline.

Chain of NET (nor-epinephrine transporter) (P23975 whole entry, species assumed, the tested form may be a part): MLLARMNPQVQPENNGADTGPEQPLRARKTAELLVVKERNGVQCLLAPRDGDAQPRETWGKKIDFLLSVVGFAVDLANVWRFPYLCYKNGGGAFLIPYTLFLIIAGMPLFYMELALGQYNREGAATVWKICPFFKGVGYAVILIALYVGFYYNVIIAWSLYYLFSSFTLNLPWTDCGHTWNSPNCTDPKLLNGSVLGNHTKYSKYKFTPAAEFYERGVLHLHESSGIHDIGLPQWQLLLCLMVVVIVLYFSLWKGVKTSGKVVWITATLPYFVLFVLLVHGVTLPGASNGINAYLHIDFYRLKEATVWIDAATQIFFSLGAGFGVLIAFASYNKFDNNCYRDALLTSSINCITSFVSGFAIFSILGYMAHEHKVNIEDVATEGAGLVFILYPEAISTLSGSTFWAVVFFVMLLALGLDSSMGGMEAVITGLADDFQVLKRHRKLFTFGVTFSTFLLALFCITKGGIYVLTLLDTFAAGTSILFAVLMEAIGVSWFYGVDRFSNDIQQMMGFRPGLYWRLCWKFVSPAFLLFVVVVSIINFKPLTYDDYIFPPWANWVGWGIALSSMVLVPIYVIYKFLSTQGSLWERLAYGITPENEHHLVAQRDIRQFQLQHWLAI

NC(=O)CC[C@@H]1NC(=O)[C@H](Cc2ccccc2)NC(=O)[C@H](Cc2ccc(O)cc2)NC(=O)[C@@H](N)CSSC[C@@H](C(=O)N2CCC[C@H]2C(=O)N[C@@H](CCCN=C(N)N)C(=O)NCC(N)=O)NC(=O)[C@H](CC(N)=O)NC1=O [ADH]
half-life-time [1]: about 15 minutes

CCN(CC)CC(=O)Nc1c(C)cccc1C [Lidocaine]
effect of infusion on blood pressure [2]: vasodilatation and a lowering of the blood pressure

CNCCCN1c2ccccc2CCc2ccc(Cl)cc21 [Norclomipramine]
potency among NET inhibitors [3]: highest

CNCCCC1c2ccccc2C=Cc2ccccc21 [Protriptylin]
potency among NET inhibitors [3]: highest

CC(N)Cc1ccccc1 (stereo not drawn) [amphetamine, alpha-methylphenethylamine]
increase of mean arterial pressure ([4]; added at 29.5 hours to infusion solution of Experiment 1 without cocaine, constant until 36 hours): about 15 mmHg

COC(=O)[C@H]1[C@@H](OC(=O)c2ccccc2)C[C@@H]2CC[C@H]1N2C [cocaine, benzoylmethyl ecgonine]
potentiation of the effect of blood circulating nor-adrenaline (vasoconstriction) ([4]; added together with nor-adrenaline, compared with cocaine): much lower levels of nor-adrenaline
blood pressure maintained at a constant level ([4]; more than 20 experiments with pigs, in combination with adrenaline and nor-adrenaline, over 24 hours): 70 mmHg

CNCCCN1c2ccccc2CCc2ccccc21 [desipramine]
mean pressure reached on infusion ([4]; Experiment 2, infusion 1.7 to 3.2 ml/hour with adrenaline and nor-adrenaline, from a mean pressure of about 40 mmHg): 80 mmHg
blood pressure after infusion rate was decreased ([4]; Experiment 2, infusion rate decreased to 2.5 and 1.7 ml/hour, never decreased further): about 60 mmHg
half-life time [1]: 30 h

CNC[C@H](O)c1cccc(O)c1 [phenylephrine]
potency relative to nor-adrenaline (times less potent) (alfa-1): about 5 times
